According to ChEMBL document CHEMBL5131385, “Novel piperazine based benzamide derivatives as potential anti-glioblastoma agents inhibiting cell proliferation and cell cycle progression” (Eur J Med Chem, 2022):
Activity calls are given as the source filed them. The calls are words filed in the database; no cut-off is given here.

Columns and labels:
U-87MG ATCC [1] = experiment: Antiproliferative activity against human U-87 MG cells assessed as reduction in cell proliferation at 0.125 to 0.5 uM and measured after 24 hrs by EdU incorporation based assay; format: functional; conditions: dose 0.125-0.5 µM, DDE = dose-dependent effect
U-251 [2] = experiment: Induction of apoptosis in human U-251 cells assessed as necrotic cells at 1.50 uM incubated for 72 hrs by Annexin V-FITC/PI staining based flow cytometry method (Rvb =0.51 %); format: functional; conditions: dose 1.5 µM
[3] = Tmax in Sprague-Dawley rat plasma at 100 mg/kg, ip and measured upto 240 mins by LC-MS analysis; format: ADME, organism-based
U-87MG ATCC [4] = experiment: Antimigratory activity in human U-87 MG cells assessed as inhibition of cell migration by measuring wound closure at 0.125 to 0.50 uM and measured after 24 hrs by wound healing assay; format: functional, cell-based; conditions: dose 0.125-0.5 µM, DDE = dose-dependent effect
[5] = AUC (0 to infinity) in Sprague-Dawley rat brain at 100 mg/kg, ip and measured upto 240 mins by LC-MS analysis; format: ADME, organism-based; design: dose 100 mg/kg, time < 240 min, route ip
U-87MG ATCC [6] = experiment: Antiproliferative activity against human U-87 MG cells assessed as release of LDH in supernatant and measured after 72 hrs by microplate reader assay; format: functional, cell-based; conditions: DDE = dose-dependent effect
[7] = Tmax in Sprague-Dawley rat brain at 100 mg/kg, ip and measured upto 240 mins by LC-MS analysis; format: ADME, organism-based
[8] = Induction of apoptosis in human U-87 MG cells assessed as early apoptotic cells at 0.30 uM incubated for 72 hrs by Annexin V-FITC/PI staining based flow cytometry method (reference value: 2.53 %); format: functional, U-87MG ATCC; conditions: dose 0.3 µM
U-87MG ATCC [9] = experiment: Antitumor activity against human U-87 MG cells xenografted in BALB/c mouse assessed assessed as inhibition of tumor cell proliferation at 10 mg/kg,ip bid for 1 month by Ki67 staining based immunohistochemical analysis; format: functional, organism-based; conditions: time 1.0 months
[10] = Induction of apoptosis in human U-87 MG cells assessed as viable cells at 1.20 uM incubated for 72 hrs by Annexin V-FITC/PI staining based flow cytometry method (reference value: 96.84 %); format: functional, U-87MG ATCC; conditions: read-out: Activity
U-251 [11] = experiment: Antiproliferative activity against human U-251 cells assessed as release of LDH in supernatant and measured after 72 hrs by microplate reader assay; format: functional, cell-based; conditions: DDE = dose-dependent effect
U-87MG ATCC [12] = experiment: Upregulation of p16 INK4a gene expression in human U-87 MG cells at 0.075 to 1.2 uM measured after 72 hrs by western blot analysis; format: functional, cell-based; conditions: dose 0.075-1.2 µM
U-251 [13] = experiment: Antiproliferative activity against human U-251 cells assessed as reduction in cell proliferation at 0.075 to 1.2 uM and measured after 24 hrs by EdU incorporation based assay; format: functional; conditions: dose 0.075-1.2 µM, DDE = dose-dependent effect
U-251 [14] = experiment: Antimigratory activity in human U-251 cells assessed as inhibition of cell migration by measuring wound closure at 0.25 to 1.0 uM and measured after 24 hrs by transwell migration assay; format: functional, cell-based; conditions: dose 0.25-1 µM, DDE = dose-dependent effect
U-87MG ATCC [15] = experiment: Induction of cell cycle arrest in human U-87 MG cells assessed as accumulation at G0/G1 phase at 0.075 to 1.2 uM and measured after 72 hrs by flow cytometry; format: functional, cell-based; conditions: dose 0.075-1.2 µM, DDE = dose-dependent effect
U-251 [16] = experiment: Induction of apoptosis in human U-251 cells assessed as reduction in cell count at 0.375 to 6 uM measured after 72 hrs by Giemsa staining based microscopic analysis; format: functional; conditions: dose 0.375-6 µM
U-251 [17] = experiment: Induction of apoptosis in human U-251 cells assessed as necrotic cells at 0.375 uM incubated for 72 hrs by Annexin V-FITC/PI staining based flow cytometry method (Rvb =0.51 %); format: functional
U-251 [18] = experiment: Induction of cell cycle arrest in human U-251 cells assessed as accumulation at G0/G1 phase at 0.75 to 3 uM and measured after 72 hrs by flow cytometry; format: functional, cell-based; conditions: dose 0.75-3 µM, DDE = dose-dependent effect
[19] = AUC (0 to infinity) in Sprague-Dawley rat plasma at 100 mg/kg, ip and measured upto 240 mins by LC-MS analysis; format: ADME, organism-based; design: time < 240 min, dose 100 mg/kg, route ip

Compound: COCCN1CCN(c2ccc(F)cc2C(=O)Nc2ccc(CNC(=O)OCc3cccnc3)cc2)CC1
- Activity (U-87MG ATCC [1]): Dde
- Activity (U-251 [2]): 0.94%
- Tmax [3]: 30 min
- Activity (U-87MG ATCC [4]): Dde
- AUC(0-inf) [5]: 102000 ng·h/mL
- Activity (U-87MG ATCC [6]): Dde
- Tmax [7]: 30 min
- Activity [8]: 4.51%
- Activity (U-87MG ATCC [9]): Active
- viability at 1.2 µM [10]: 70.3%
- Activity (U-251 [11]): Dde
- Activity (U-87MG ATCC [12]): Active
- Activity (U-251 [13]): Dde
- Activity (U-251 [14]): Dde
- Activity (U-87MG ATCC [15]): Dde
- Activity (U-251 [16]): Active
- Activity (U-251 [17]): 0.53%
- Activity (U-251 [18]): Dde
- AUC(0-inf) [19]: 95500 ng·h/mL
